Like-named read-outs stand apart in the source and are kept apart here.

Data set [1] deals with T1, CFTR (Homo sapiens, UniProt P13569). Briefly: Short-circuit current (apical Cl− current) analysis on permeabilized CFTR-expressing FRT cells.
Data set [2] can be described thus: Spectrophotometric pH titration (pKa). Type of data set: physicochemical. Here is the method: FIG. 5A is a graph illustrating the pH-dependent absorbance changes (right panel) of the chemical compounds (10 μM) (corresponding chemical structures, left panel) in NaCl (100 mM) containing MES, HEPES, boric acid, and citric acid (each 10 mM) titrated to different pH using HCl/NaOH. Absorbance changes measured at analytical wavelengths of 346, 348, 346, and 236 nm (top to bottom).

The target of data set [3] is T1, CFTR. In words: Cell-attached patch-clamp, CFTR single channel activity in FRT cells. Type of data set: cell-based. The note with it: for Mean channel open time: +60 mV. The arrangement: expressed in transfected cells; host or cells: Fisher Rat Thyroid (FRT) cells, stably transfected. The protocol: Patch-clamp experiments were carried out at room temperature on FRT cells stably expressing wildtype CFTR. Cell-attached and whole-cell configurations were used (Hamill et al., Pflugers Arch. 391:85-100, 1981). The cell membrane was clamped at specified voltages using an EPC-7 patch-clamp amplifier (List Medical). Data were filtered at 500 Hz and digitized at 2000 Hz. For whole-cell experiments the pipette solution contained (in mM): 120 CsCl, 10 TEA-Cl, 0.5 EGTA, 1 MgCl2, 40 mannitol, 10 Cs-HEPES and 3 mM MgATP (pH 7.3). For cell attached experiments EGTA was replaced with 1 mM CaCl2. The bath solution for whole-cell experiments contained (in mM): 150 NaCl, 1 CaCl2, 1 MgCl2, 10 glucose, 10 mannitol, 10 Na-TES (pH 7.4). In cell-attached experiments the bath solution contained (in mM): 130 KCl, 2 NaCl, 2 CaCl2, 2 MgCl2, 10 glucose, 20 mannitol, and 10 K-Hepes (pH 7.3). Inhibitors were applied by extracellular perfusion. CFTR channel activity in cell-attached patches was analyzed as described previously (Taddei et al., FEBS Lett. 558:52-56, 2004).
Cell-attached patch-clamp experiments were carried out to investigate the mechanism of GlyH-101 block of CFTR Cl^− current at the single-channel level. […] In the absence of the inhibitor, mean channel open time was 264±11 ms (SE, n=10). Mean channel open times at +60 mV at 0.4, 1, and 5 μM GlyH-101 were reduced to 181±29, 38±5, and 13±2 ms, respectively (n=5; p<0.01 for all concentrations vs. control).

Data set [4] concerns the target T2, CFTR (cAMP-stimulated short-circuit current) in T84 cells (Homo sapiens, UniProt P13569).
T2 construct: endogenous in cells; host or cells: T84 colon epithelial cells
In words: Short-circuit current in non-permeabilized T84 cells. Type of data set: cell-based. Here is the method:
The efficacy of GlyH-101 in inhibiting cAMP/cholera toxin-induced intestinal fluid secretion was also evaluated. Short-circuit current experiments were done in different cell types and in intact mouse ileum under non-permeabilized conditions and in the absence of a Cl^− gradient. In each case CFTR was activated by CPT-cAMP after ENaC inhibition by amiloride. […] Inhibition was ˜100% at higher GlyH-101 concentrations. Cholera toxin-induced intestinal fluid secretion was measured in an in vivo closed-loop model in which loops for each mouse were injected with saline (control), cholera toxin (1 μg), or cholera toxin (1 μg)+GlyH-101 (0.25 μg). GlyH-101 was added to the lumen (rather than systemically) based on initial studies showing poor intestinal absorption and little effect of systemically administered compound. Compared to the saline control, the cholera toxin-induced increase in fluid secretion over 4 hours, quantified from loop weight-to-length ratio, was 80% reduced by GlyH-101.

In data set [5] the target is upper airway CFTR Cl− conductance (Mus musculus, UniProt P26361). Briefly: Nasal potential difference measurements in mice.
upper airway CFTR Cl− conductance, sequence (P26361 whole entry): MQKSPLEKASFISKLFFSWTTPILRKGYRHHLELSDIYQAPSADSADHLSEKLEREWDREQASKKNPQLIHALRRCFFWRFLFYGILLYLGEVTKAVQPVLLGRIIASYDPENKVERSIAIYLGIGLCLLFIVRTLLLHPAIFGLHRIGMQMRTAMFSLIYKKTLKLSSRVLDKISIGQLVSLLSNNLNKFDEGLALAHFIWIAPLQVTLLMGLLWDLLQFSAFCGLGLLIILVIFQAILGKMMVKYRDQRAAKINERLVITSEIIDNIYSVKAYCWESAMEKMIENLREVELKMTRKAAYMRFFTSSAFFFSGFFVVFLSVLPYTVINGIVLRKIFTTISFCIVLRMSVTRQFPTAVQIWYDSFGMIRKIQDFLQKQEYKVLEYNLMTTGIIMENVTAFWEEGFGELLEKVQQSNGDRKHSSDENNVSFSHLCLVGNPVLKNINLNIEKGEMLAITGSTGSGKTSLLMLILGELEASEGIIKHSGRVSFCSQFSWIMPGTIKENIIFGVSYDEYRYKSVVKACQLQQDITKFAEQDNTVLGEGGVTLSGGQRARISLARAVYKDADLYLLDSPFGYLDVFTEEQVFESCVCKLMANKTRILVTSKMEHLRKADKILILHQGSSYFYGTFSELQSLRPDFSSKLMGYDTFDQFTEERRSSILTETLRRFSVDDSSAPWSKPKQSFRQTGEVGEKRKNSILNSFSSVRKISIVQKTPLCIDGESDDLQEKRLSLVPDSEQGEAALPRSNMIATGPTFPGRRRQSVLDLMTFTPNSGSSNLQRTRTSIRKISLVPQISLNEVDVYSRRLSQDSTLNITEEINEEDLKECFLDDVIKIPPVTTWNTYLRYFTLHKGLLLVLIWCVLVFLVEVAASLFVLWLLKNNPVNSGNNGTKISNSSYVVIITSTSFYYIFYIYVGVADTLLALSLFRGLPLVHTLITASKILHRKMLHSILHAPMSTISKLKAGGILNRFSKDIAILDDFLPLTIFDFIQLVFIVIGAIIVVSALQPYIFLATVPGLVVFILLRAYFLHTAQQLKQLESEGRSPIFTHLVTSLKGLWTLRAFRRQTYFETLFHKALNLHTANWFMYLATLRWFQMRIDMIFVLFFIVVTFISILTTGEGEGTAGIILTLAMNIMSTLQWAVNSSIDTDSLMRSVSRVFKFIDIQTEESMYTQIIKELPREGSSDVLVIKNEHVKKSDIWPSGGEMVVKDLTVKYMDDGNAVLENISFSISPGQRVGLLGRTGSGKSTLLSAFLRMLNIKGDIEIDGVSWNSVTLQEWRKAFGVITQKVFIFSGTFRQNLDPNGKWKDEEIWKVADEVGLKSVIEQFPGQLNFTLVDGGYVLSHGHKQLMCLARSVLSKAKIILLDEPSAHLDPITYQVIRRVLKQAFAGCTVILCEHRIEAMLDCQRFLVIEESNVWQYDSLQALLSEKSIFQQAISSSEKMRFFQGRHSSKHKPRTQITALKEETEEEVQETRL

T1 sequence (P13569 whole entry): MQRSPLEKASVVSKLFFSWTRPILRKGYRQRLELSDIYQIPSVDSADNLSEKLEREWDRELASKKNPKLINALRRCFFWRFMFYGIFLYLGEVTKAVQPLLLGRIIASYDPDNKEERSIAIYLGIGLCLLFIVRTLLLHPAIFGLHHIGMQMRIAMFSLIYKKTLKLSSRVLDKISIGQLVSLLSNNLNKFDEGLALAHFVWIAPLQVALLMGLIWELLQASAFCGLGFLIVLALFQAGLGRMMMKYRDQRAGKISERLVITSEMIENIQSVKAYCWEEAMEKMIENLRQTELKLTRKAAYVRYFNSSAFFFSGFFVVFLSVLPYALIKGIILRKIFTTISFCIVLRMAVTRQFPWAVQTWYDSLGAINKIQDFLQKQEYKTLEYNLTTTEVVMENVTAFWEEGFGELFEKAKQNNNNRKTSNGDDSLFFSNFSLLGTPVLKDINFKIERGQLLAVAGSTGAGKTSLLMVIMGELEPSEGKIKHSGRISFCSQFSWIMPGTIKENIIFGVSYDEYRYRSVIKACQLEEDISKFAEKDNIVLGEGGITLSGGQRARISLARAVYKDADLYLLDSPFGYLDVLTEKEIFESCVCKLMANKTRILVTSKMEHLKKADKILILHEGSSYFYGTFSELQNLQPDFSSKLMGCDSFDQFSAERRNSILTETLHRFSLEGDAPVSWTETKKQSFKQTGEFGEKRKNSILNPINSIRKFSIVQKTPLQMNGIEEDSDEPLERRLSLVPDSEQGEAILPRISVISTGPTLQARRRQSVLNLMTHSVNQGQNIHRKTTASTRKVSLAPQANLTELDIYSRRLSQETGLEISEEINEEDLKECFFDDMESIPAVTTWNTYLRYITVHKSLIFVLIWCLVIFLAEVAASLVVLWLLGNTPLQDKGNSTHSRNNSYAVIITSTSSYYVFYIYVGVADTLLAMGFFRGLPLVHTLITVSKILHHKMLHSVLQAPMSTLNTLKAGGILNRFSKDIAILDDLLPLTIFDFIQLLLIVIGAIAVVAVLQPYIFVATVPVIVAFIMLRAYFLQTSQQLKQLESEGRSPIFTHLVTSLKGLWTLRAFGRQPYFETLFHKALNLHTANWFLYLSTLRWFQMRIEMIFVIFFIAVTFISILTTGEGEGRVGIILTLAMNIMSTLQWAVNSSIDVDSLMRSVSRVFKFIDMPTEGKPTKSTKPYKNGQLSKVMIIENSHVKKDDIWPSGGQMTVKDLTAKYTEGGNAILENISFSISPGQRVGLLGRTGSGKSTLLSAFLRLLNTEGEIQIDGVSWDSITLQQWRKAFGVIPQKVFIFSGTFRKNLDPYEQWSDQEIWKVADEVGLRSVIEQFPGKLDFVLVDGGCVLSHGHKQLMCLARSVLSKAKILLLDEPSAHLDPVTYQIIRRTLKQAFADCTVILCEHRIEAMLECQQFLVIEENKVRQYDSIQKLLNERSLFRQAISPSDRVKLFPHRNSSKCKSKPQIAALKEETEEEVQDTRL
T2 sequence (P13569 whole entry): as above

Take `O=C(CNc1ccc2ccccc2c1)NN=Cc1cc(Br)c(O)c(Br)c1O` [GlyH-101, N-2-napthalenyl-[(3,5-dibromo-2,4-dihydroxyphenyl)methylene]glycine hydrazide]: on CFTR [1] (Table 1, Group I, 50 μM), the “% inhibition at 50 μM” value is 95%. The Ki on CFTR [1] (Table 1, Group I, concentration giving 50% inhibition of CFTR Cl− conductance) is 5 µM; at CFTR [1] (read-out: Ki of screening hits, dose-response measurements, confirmed by short-circuit current analysis), approximately 5 µM; in data set [4] (CPT-cAMP after amiloride, read-out: Ki for inhibition of cAMP-stimulated short-circuit current), approximately 5 µM. For the same molecule, the “pH dependence of Ki for inhibition of CFTR Cl− current” value at CFTR [1] (pH range 6-8) is “independent of pH”. Moreover, the “pKa, first (para) phenolic hydroxyl” value in data set [2] is approximately 5.5. The “pKa, second ortho hydroxyl” value in data set [2] is reported as approximately 8.5. Further, the “pKa, secondary amine” value in data set [2] is on record as approximately 4.7. In data set [2] (pH between 6 and 8), the ionic form result is on record as “singly charged anion”. For the same molecule, the “change in single channel conductance” value on CFTR [3] (0.4-5 μM) is recorded as “without a change”. Besides, the “Mean channel open time” value was 181 ± 29 ms at CFTR [3] (0.4 μM GlyH-101), 38 ± 5 ms at CFTR [3] (1 μM GlyH-101) and 13 ± 2 ms on CFTR [3] (5 μM GlyH-101). Moreover, the “Inhibition at higher concentrations” value in data set [4] is approximately 100%. The “PD change (ΔPD), paired analysis” value in data set [5] (after ˜4 mV hyperpolarization by forskolin) is “depolarization of similar magnitude”. Further, the “inhibition of forskolin-induced hyperpolarization” value in data set [5] (compound in all solutions (10 μM)) was “substantial inhibition”. Besides, in data set [5] (topical in perfusate, 10 μM), the “effect on forskolin-induced hyperpolarization of nasal PD” value was “rapidly reversed”.

As a reminder, the % inhibition is the relative decrease from the control value, in per cent. As a reminder, the Ki is a measure of affinity in units of concentration, obtained from inhibition or displacement. The term Inhibition denotes the percentage by which the read-out fell short of the control. A higher Inhibition goes with a strong effect.

The values above are taken from US7888332B2, “Hydrazide-containing CFTR inhibitor compounds and uses thereof” (The Regents of the University of California, priority 2004, dated 2011).
